Numbers after ± are expanded uncertainties.
Experiment: xn = mol fraction of the nth substance listed
Settings: Gas, Burnett expansion method

C=C(F)C(F)(F)F [2,3,3,3-tetrafluoro-1-propene] + FCF
Settings | mass density [kg/m3]
298.75 K, 572.1 kPa, x2 = 0.119 | 28.04 ± 0.54
298.79 K, 1055.5 kPa, x2 = 0.698 | 36.11 ± 0.34
298.8 K, 475.09 kPa, x2 = 0.449 | 18 ± 0.17
298.8 K, 476.95 kPa, x2 = 0.259 | 20.72 ± 0.18
298.8 K, 518.4 kPa, x2 = 0.698 | 16.01 ± 0.15
298.8 K, 684.19 kPa, x2 = 0.449 | 27.04 ± 0.21
298.82 K, 748.46 kPa, x2 = 0.698 | 24.04 ± 0.22
298.86 K, 487.12 kPa, x2 = 0.874 | 12.55 ± 0.15
298.86 K, 1393.8 kPa, x2 = 0.874 | 42.51 ± 0.35
298.87 K, 1004.6 kPa, x2 = 0.874 | 28.3 ± 0.32
298.93 K, 704.35 kPa, x2 = 0.874 | 18.84 ± 0.22
308.66 K, 1524.8 kPa, x2 = 0.698 | 54.21 ± 0.54
308.68 K, 1108.2 kPa, x2 = 0.698 | 36.09 ± 0.34
308.69 K, 597.54 kPa, x2 = 0.119 | 28.02 ± 0.15
308.7 K, 493.92 kPa, x2 = 0.449 | 17.99 ± 0.17
308.7 K, 496.45 kPa, x2 = 0.259 | 20.72 ± 0.17
308.71 K, 538.99 kPa, x2 = 0.698 | 16 ± 0.15
308.71 K, 714.14 kPa, x2 = 0.449 | 27.02 ± 0.25
308.71 K, 842.28 kPa, x2 = 0.119 | 42.09 ± 0.28
308.72 K, 712.34 kPa, x2 = 0.259 | 31.11 ± 0.24
308.72 K, 997.47 kPa, x2 = 0.259 | 46.73 ± 0.35
308.73 K, 780.62 kPa, x2 = 0.698 | 24.03 ± 0.22
308.74 K, 1976.1 kPa, x2 = 0.874 | 63.81 ± 0.55
308.76 K, 1011.1 kPa, x2 = 0.449 | 40.58 ± 0.37
308.77 K, 1470.2 kPa, x2 = 0.874 | 42.48 ± 0.51
308.78 K, 1051.3 kPa, x2 = 0.874 | 28.28 ± 0.33
308.79 K, 506.01 kPa, x2 = 0.874 | 12.54 ± 0.15
308.82 K, 733.43 kPa, x2 = 0.874 | 18.83 ± 0.22
313.6 K, 1566.5 kPa, x2 = 0.698 | 54.19 ± 0.54
313.64 K, 503.35 kPa, x2 = 0.449 | 17.98 ± 0.17
313.64 K, 1134 kPa, x2 = 0.698 | 36.08 ± 0.34
313.65 K, 610.01 kPa, x2 = 0.119 | 28.01 ± 0.15
313.66 K, 506.36 kPa, x2 = 0.259 | 20.71 ± 0.17
313.66 K, 728.88 kPa, x2 = 0.449 | 27.01 ± 0.25
313.67 K, 796.71 kPa, x2 = 0.698 | 24.02 ± 0.22
313.68 K, 549.32 kPa, x2 = 0.698 | 15.99 ± 0.15
313.68 K, 727.83 kPa, x2 = 0.259 | 31.11 ± 0.24
313.68 K, 862.42 kPa, x2 = 0.119 | 42.07 ± 0.28
313.68 K, 1021.8 kPa, x2 = 0.259 | 46.73 ± 0.35
313.7 K, 1507.4 kPa, x2 = 0.874 | 42.47 ± 0.51
313.7 K, 2038.5 kPa, x2 = 0.874 | 63.79 ± 0.55
313.72 K, 1034.8 kPa, x2 = 0.449 | 40.57 ± 0.37
313.72 K, 1074 kPa, x2 = 0.874 | 28.28 ± 0.33
313.74 K, 515.35 kPa, x2 = 0.874 | 12.53 ± 0.15
313.79 K, 747.77 kPa, x2 = 0.874 | 18.83 ± 0.22
318.62 K, 1609.8 kPa, x2 = 0.698 | 54.18 ± 0.53
318.68 K, 1159.3 kPa, x2 = 0.698 | 36.07 ± 0.34
318.7 K, 2100 kPa, x2 = 0.874 | 63.77 ± 0.91
318.72 K, 512.99 kPa, x2 = 0.449 | 17.98 ± 0.16
318.72 K, 882.63 kPa, x2 = 0.119 | 42.06 ± 0.26
318.72 K, 1210.1 kPa, x2 = 0.119 | 63.25 ± 0.45
318.73 K, 516.26 kPa, x2 = 0.259 | 20.71 ± 0.17
318.73 K, 743.73 kPa, x2 = 0.449 | 27 ± 0.24
318.73 K, 813.03 kPa, x2 = 0.698 | 24.02 ± 0.22
318.73 K, 1463.2 kPa, x2 = 0.449 | 61.04 ± 0.6
318.74 K, 559.65 kPa, x2 = 0.698 | 15.99 ± 0.15
318.74 K, 743.48 kPa, x2 = 0.259 | 31.1 ± 0.24
318.74 K, 1046.5 kPa, x2 = 0.259 | 46.72 ± 0.45
318.74 K, 1058.5 kPa, x2 = 0.449 | 40.56 ± 0.38
318.74 K, 1097.2 kPa, x2 = 0.874 | 28.27 ± 0.33
318.74 K, 1544.9 kPa, x2 = 0.874 | 42.46 ± 0.51
318.75 K, 622.85 kPa, x2 = 0.119 | 28 ± 0.15
318.77 K, 762.25 kPa, x2 = 0.874 | 18.82 ± 0.22
318.78 K, 525.03 kPa, x2 = 0.874 | 12.53 ± 0.15
323.56 K, 1650.9 kPa, x2 = 0.698 | 54.16 ± 0.53
323.62 K, 1184.6 kPa, x2 = 0.698 | 36.06 ± 0.34
323.62 K, 2161.1 kPa, x2 = 0.874 | 63.75 ± 0.74
323.67 K, 522.17 kPa, x2 = 0.449 | 17.97 ± 0.16
323.67 K, 902.39 kPa, x2 = 0.119 | 42.05 ± 0.26
323.67 K, 2803.5 kPa, x2 = 0.874 | 96.27 ± 0.9
323.68 K, 525.72 kPa, x2 = 0.259 | 20.71 ± 0.17
323.68 K, 569.78 kPa, x2 = 0.698 | 15.98 ± 0.15
323.68 K, 758.4 kPa, x2 = 0.449 | 27 ± 0.24
323.68 K, 828.96 kPa, x2 = 0.698 | 24.01 ± 0.22
323.68 K, 1081.3 kPa, x2 = 0.449 | 40.55 ± 0.38
323.69 K, 533.88 kPa, x2 = 0.874 | 12.53 ± 0.15
323.69 K, 758.79 kPa, x2 = 0.259 | 31.1 ± 0.23
323.69 K, 1070.4 kPa, x2 = 0.259 | 46.71 ± 0.38
323.69 K, 1460 kPa, x2 = 0.259 | 70.1 ± 0.56
323.69 K, 1502 kPa, x2 = 0.449 | 61.01 ± 0.59
323.69 K, 2207.6 kPa, x2 = 0.698 | 81.35 ± 0.89
323.7 K, 635.26 kPa, x2 = 0.119 | 27.99 ± 0.15
323.7 K, 1243.5 kPa, x2 = 0.119 | 63.23 ± 0.44
323.7 K, 1581.8 kPa, x2 = 0.874 | 42.45 ± 0.5
323.71 K, 776.56 kPa, x2 = 0.874 | 18.81 ± 0.22
323.73 K, 1120.2 kPa, x2 = 0.874 | 28.26 ± 0.33
328.55 K, 1691.6 kPa, x2 = 0.698 | 54.15 ± 0.53
328.58 K, 1209.7 kPa, x2 = 0.698 | 36.05 ± 0.33
328.6 K, 543.23 kPa, x2 = 0.874 | 12.52 ± 0.15
328.61 K, 531.32 kPa, x2 = 0.449 | 17.97 ± 0.16
328.61 K, 772.98 kPa, x2 = 0.449 | 26.99 ± 0.24
328.61 K, 1275.3 kPa, x2 = 0.119 | 63.21 ± 0.43
328.62 K, 579.61 kPa, x2 = 0.698 | 15.98 ± 0.15
328.62 K, 2220.5 kPa, x2 = 0.874 | 63.73 ± 0.74
328.62 K, 2904.2 kPa, x2 = 0.874 | 96.19 ± 0.88
328.63 K, 535.28 kPa, x2 = 0.259 | 20.7 ± 0.17
328.63 K, 844.62 kPa, x2 = 0.698 | 24 ± 0.22
328.63 K, 922.19 kPa, x2 = 0.119 | 42.04 ± 0.25
328.63 K, 1094.6 kPa, x2 = 0.259 | 46.71 ± 0.38
328.63 K, 1105.1 kPa, x2 = 0.449 | 40.54 ± 0.38
328.63 K, 1499.1 kPa, x2 = 0.259 | 70.09 ± 0.57
328.64 K, 647.48 kPa, x2 = 0.119 | 27.99 ± 0.15
328.64 K, 773.73 kPa, x2 = 0.259 | 31.1 ± 0.23
328.64 K, 1540.2 kPa, x2 = 0.449 | 60.98 ± 0.59
328.64 K, 2275.8 kPa, x2 = 0.698 | 81.33 ± 0.87
328.65 K, 1617.6 kPa, x2 = 0.874 | 42.43 ± 0.5
328.66 K, 790.86 kPa, x2 = 0.874 | 18.81 ± 0.22
328.67 K, 1142.6 kPa, x2 = 0.874 | 28.25 ± 0.33
333.46 K, 1731.9 kPa, x2 = 0.698 | 54.13 ± 0.52
333.56 K, 540.51 kPa, x2 = 0.449 | 17.96 ± 0.16
333.57 K, 941.58 kPa, x2 = 0.119 | 42.02 ± 0.25
333.57 K, 1235.3 kPa, x2 = 0.698 | 36.04 ± 0.33
333.57 K, 2278.9 kPa, x2 = 0.874 | 63.71 ± 0.73
333.57 K, 2342.7 kPa, x2 = 0.698 | 81.3 ± 0.85
333.58 K, 544.62 kPa, x2 = 0.259 | 20.7 ± 0.17
333.58 K, 1578 kPa, x2 = 0.449 | 60.96 ± 0.62
333.58 K, 1734.6 kPa, x2 = 0.119 | 94.99 ± 0.76
333.58 K, 2115 kPa, x2 = 0.449 | 91.6 ± 0.99
333.58 K, 3002.9 kPa, x2 = 0.874 | 96.12 ± 1.5
333.59 K, 659.59 kPa, x2 = 0.119 | 27.98 ± 0.15
333.59 K, 787.46 kPa, x2 = 0.449 | 26.98 ± 0.24
333.59 K, 788.83 kPa, x2 = 0.259 | 31.09 ± 0.23

Reference: the NIST ThermoML archive (doi:10.1016/j.jct.2019.02.028)
